Results reported in patent US20260285858A1, “GLP-1 RECEPTOR TARGETING COMPOUNDS AND USES THEREOF” (FORTVITA BIOLOGICS INC., priority 2023, published 2026).

Assays:
human GLP-1R = target: T1, human GLP-1R (Homo sapiens, UniProt P43220); assay: cAMP accumulation assay (Hithunter cAMP Assay) in CHO-K1 cells stably expressing human GLP-1R; format: cell-based; details: CHO-K1 cells expressing human GLP-1R; in the presence of BSA (1%); 30-minute incubation; relative EC50
T1 construct: expressed in transfected cells; host or cells: CHO-K1
T1 sequence (P43220 24-463): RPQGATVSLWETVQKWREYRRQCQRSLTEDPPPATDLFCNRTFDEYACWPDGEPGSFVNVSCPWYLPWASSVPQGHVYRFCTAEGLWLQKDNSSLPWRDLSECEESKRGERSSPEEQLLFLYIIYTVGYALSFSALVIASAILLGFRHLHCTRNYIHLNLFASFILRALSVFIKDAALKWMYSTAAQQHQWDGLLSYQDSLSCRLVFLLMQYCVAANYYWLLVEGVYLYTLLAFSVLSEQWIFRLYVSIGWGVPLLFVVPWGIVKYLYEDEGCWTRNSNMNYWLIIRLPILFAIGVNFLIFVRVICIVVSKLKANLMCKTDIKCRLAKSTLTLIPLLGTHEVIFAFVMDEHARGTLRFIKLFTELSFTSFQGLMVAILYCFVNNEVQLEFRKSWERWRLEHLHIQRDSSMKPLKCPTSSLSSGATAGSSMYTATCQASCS
Description: CHO-K1 cell line stably expressing human GLP-1R was used to detect the cAMP levels using Hithunter cAMP Assay for small molecules platform according manufacturer's instructions (DiscoverX, Cat #90-0075SM2). […] After a 30-minute incubation at 37° C., the cAMP antibody reagent, working solution (mixing 19-parts of lysis buffer, 5-parts of substrate reagent 1, 1-part of substrate reagent 2, and 25-parts of solution D (enzyme donor-labeled cAMP)), and solution A (enzyme […]) were added and incubated at room temperature in the dark. The resulting competitive assays were measured using Spectramax i3x Multi-Mode Detection system (Molecular Devices, USA). A relative EC50 was derived by nonlinear regression analysis by fitting to a 4-parameter logistic model in GraphPad Prism 9 software.

[1] = Pharmacokinetic testing in crab-eating macaques (cynomolgus monkey), IV and PO; format: in vivo; details: for pharmacokinetics compared to Orforglipron: comparison in words; for AUC(0-t) at 24 h / C0 / clearance / half-life / Cmax / bioavailability: cynomolgus monkey, plasma; for bioavailability: 2 mg/kg vs IV 0.5 mg/kg
Description: Crab-eating macaques were administered the compound of the present invention via intravenous injection and oral gavage, respectively. Plasma samples were collected at various time points. The drug concentration of the test compound in the plasma tissue of the crab-eating macaques was detected using an LC-MS/MS analytical method, and a pharmacokinetic analysis was conducted.
Solvent for intravenous injection dosing formulation: […] (DMSO)+5% polyethylene glycol (PEG)-15 hydroxystearate+90% o physiological saline.
Preparation steps for the intravenous injection dosing solution: Accurately weigh the test compound and add it to the aforementioned solvent for intravenous injection dosing to prepare a solution with a final concentration of 0.25 mg/mL.
Solvent for oral dosing formulation: 5% dimethyl sulfoxide (DMSO)+5% polyethylene glycol (PEG)-15 hydroxystearate+90% physiological saline.
Preparation steps for the oral dosing solution: Accurately weigh the test compound and add it to the aforementioned solvent for oral dosing to prepare a solution or suspension with a final concentration of 0.4 mg/mL.
Intravenous injection(IV): Administered via […].
Oral (PO): Select an appropriately sized gavage needle and syringe, insert the gavage needle into the esophagus from the base of the tongue, until it is close to the cardia of the stomach, then inject the drug formulation and remove the gavage needle. When using disposable plastic gavage needles, use one per group.
Blood is collected via a cephalic vein or other suitable vein, with approximately 1 mL per sample, anticoagulated with K2-EDTA, and placed on ice after collection. After collection, blood samples are kept on ice and centrifuged to separate the plasma within 1 hour (centrifugation conditions: 2200 g, 10 minutes, 2-8° C.). Plasma samples are stored at −80° C. before analysis and the remaining plasma samples after analysis are continued to be stored at −80° C. • 4. Sample Detection Plasma concentration detection: The developed LC-MS/MS method is used to detect the compound in the plasma in this experiment. • 5. Data Analysis A non-compartmental model is used to analyze the blood concentration-time data using Phoenix® WinNonlin® (Version 7.0, Pharsight, Mountain View, CA).

SMILES | EC50 (human GLP-1R) | pharmacokinetics compared to Orforglipron [1] | AUC(0-t) at 24 h ([1]; IV, 0.5 mg/kg) | C0 ([1]; IV, 0.5 mg/kg) | clearance ([1]; IV, 0.5 mg/kg) | half-life ([1]; IV, 0.5 mg/kg) | AUC(0-t) at 24 h ([1]; PO, 2 mg/kg) | Cmax ([1]; PO, 2 mg/kg) | half-life ([1]; PO, 2 mg/kg) | bioavailability ([1]; PO)
Cc1cc(-n2nc3c(c2-n2ccn(-c4ccc5c(cnn5C)c4F)c2=O)[C@H](C)N(C(=O)c2cc4cc(C5CCOCC5)ccc4n2[C@@]2(c4nnn[nH]4)[C@@H]4CN([C@H]5CC[C@H](O)CC5)C[C@@H]42)CC3)cc(C)c1F (single isomer, unassigned) [Compound C-17] | 0.2 nM |  |  |  |  |  |  |  |  | 
Cc1cc(-n2nc3c(c2-n2ccn(-c4ccc5c(cnn5C)c4F)c2=O)[C@H](C)N(C(=O)c2cc4cc(C5CCOCC5)ccc4n2[C@@]2(c4nnn[nH]4)[C@@H]4CN([C@H]5CC[C@@H](O)CC5)C[C@@H]42)CC3)cc(C)c1F (single isomer, unassigned) [Compound C-18] | 0.6 nM |  |  |  |  |  |  |  |  | 
Cc1cc(-n2nc3c(c2-n2ccn(-c4ccc5c(cnn5C)c4F)c2=O)[C@H](C)N(C(=O)c2cc4cc([C@H]5CCOC(C)(C)C5)ccc4n2[C@@]2(c4noc(=O)[nH]4)[C@@H]4CN(c5ncccn5)C[C@@H]42)CC3)cc(C)c1F [Compound C-12, 3-[(1R,5S,6S)-6-{5-[(4S)-2,2-dimethyloxan-4-yl]-2-[(4S)-3-[3-(4-fluoro-1-methyl-1H-indazol-5-yl)-2-oxo-2,3-dihydro-1H-imidazol-1-yl]-2-(4-fluoro-3,5-dimethylphenyl)-4-methyl-2H,4H,5H,6H,7H-pyrazolo[4,3-c]pyridine-5-carbonyl]-1H-indol-1-yl}-3-(pyrimidin-2-yl)-3-azabicyclo[3.1.0]hexan-6-yl]-4,5-dihydro-1,2,4-oxadiazol-5-one] |  | longer half-life, higher exposure, lower clearance rate, and greater bioavailability | 6290 ng·h/mL | 6730 ng/mL | 1.3 mL/min/kg | 6.3 h | 6160 ng·h/mL | 514 ng/mL | 5.9 h | 24.5%
Cc1cc(-n2nc3c(c2-n2ccn(-c4ccc5c(cnn5C)c4F)c2=O)[C@H](C)N(C(=O)c2cc4cc([C@H]5CCOC(C)(C)C5)ccc4n2[C@@]2(c4noc(=O)[nH]4)[C@@H]4CN(c5ccccn5)C[C@@H]42)CC3)cc(C)c1F [Compound C-22, 3-[(1R,5S,6S)-6-{5-[(4S)-2,2-dimethyloxan-4-yl]-2-[(4S)-3-[3-(4-fluoro-1-methyl-1H-indazol-5-yl)-2-oxo-2,3-dihydro-1H-imidazol-1-yl]-2-(4-fluoro-3,5-dimethylphenyl)-4-methyl-2H,4H,5H,6H,7H-pyrazolo[4,3-c]pyridine-5-carbonyl]-1H-indol-1-yl}-3-(pyridin-2-yl)-3-azabicyclo[3.1.0]hexan-6-yl]-4,5-dihydro-1,2,4-oxadiazol-5-one] |  | longer half-life, higher exposure, lower clearance rate, and greater bioavailability | 7560 ng·h/mL | 3810 ng/mL | 0.9 mL/min/kg | 10.3 h | 3590 ng·h/mL | 236 ng/mL | 13.6 h | 11.9%
Cc1cc(-n2nc3c(c2-n2ccn(-c4ccc5c(cnn5C)c4F)c2=O)[C@H](C)N(C(=O)c2cc4cc([C@H]5CCOC(C)(C)C5)ccc4n2[C@@]2(c4noc(=O)[nH]4)C[C@@H]2C)CC3)cc(C)c1F [Orforglipron, reference compound] |  |  | 1780 ng·h/mL | 1170 ng/mL | 4.6 mL/min/kg | 3.4 h | 453 ng·h/mL | 37.5 ng/mL | 6.2 h | 6.3%
